The text below walks through data of patent US11135310B2, “Gold porphyrin-PEG conjugates and methods of use” (The University of Hong Kong, priority 2015, dated 2021).

Structures are written as SMILES. Read-outs that look alike come from different tables or passages of the source.

Series [1] concerns A2780adr. The experiment in a line: cells. The note with it: Homo sapiens, A2780 ADR, 72 h.
A further series relates to MIHA. The experiment in a line: In vitro cytotoxicity, MTT assay. (In general: Tetrazolium assays rely on reduction of a dye to a coloured formazan, in cell work by metabolically active cells.)
The next series deals with HCT116. The experiment in a line: In vitro cytotoxicity, MTT assay. To be noted: for IC50: HCT116, MTT assay, 72 h incubation. The format is cell-based, human.
The test system of the next series is A2780. The experiment in a line: In vitro cytotoxicity, MTT assay. Format: cell-based, human. To be noted: for IC50: MTT assay, 72 h incubation.
The subject of a further series is HeLa. The experiment in a line: In vitro cytotoxicity, MTT assay. Format: cell-based, human. From the text:
Therefore, it was anticipated that a not too high loading of DOX into nanostructures of 1 could be used for anti-cancer purposes in order to maintain low toxicity toward non-tumorigenic cells. Together with the higher encapsulation efficiency of DOX, NC1 was selected for investigations of the in vitro cytotoxicity. […] The in vitro cytotoxicity of NC1 was also compared to that of the mixture of nanostructures of 1 and DOX. […] The observed cytotoxicity was further evaluated by the combination index (CI), which can describe the effect of drug combination. […] It is shown that dose and effect are interchangeable via defined parameters. This general equation for the single drug effect has been extended to the multiple drug effect equation for n drugs. These equations provide the theoretical basis for the combination index (CI)-isobologram equation that allows quantitative determination of drug interactions, where CI<1, =1, and >1 indicate synergism, additive effect, and antagonism, respectively. [Chou, et al. Pharmacol. Rev. 2006, 58, 621] […] The synergistic effect can originate from different molecular targets and/or mechanism of action of DOX from that of gold(III) porphyrin complexes. […] These different modes of action would allow supra-additive effect on killing HeLa cells by the co-delivery.

In another series the test system is A2780cis. The experiment in a line: In vitro cytotoxicity, MTT assay. The format is cell-based, human. The note with it: for IC50: MTT assay, 72 h incubation.
A further series concerns A2780adr cells. In words: Cellular uptake of DOX, cell lysates by UPLC-QTOF-MS. The format is cell-based, human. To be noted: for Uptake of DOX by A2780adr cells: [DOX]=0.5 μM.
Another series deals with HCT116 cells. The experiment in a line: Induction of apoptosis, CellEvent Caspase-3/7 Green (microscopy and flow cytometry). To be noted: NC1 ([1]=3.5 μM and [DOX]=0.5 μM) or DOX alone. Format: cell-based, human.
A further series relates to NCI-H460. In words: In vitro cytotoxicity, MTT assay. The format is cell-based, human. To be noted: for IC50: MTT assay, 72 h incubation.
In series [2] the test system is A2780adr. To be noted: for IC50: MTT assay, 72 h incubation.
The test system of a further series is non-tumorigenic cells. The experiment in a line: In vitro cytotoxicity, MTT assay, non-tumorigenic cells. The format is cell-based. To be noted: 72 h.
A further series deals with CCD-19Lu. In words: In vitro cytotoxicity, MTT assay. To be noted: 72 h incubation. The format is cell-based.
In a further series the test system is NCM460. The experiment in a line: In vitro cytotoxicity, MTT assay. The format is cell-based, human. The note with it: 72 h incubation.
Setting [3] is: IC50 of MIHA cells/IC50 of cancer cells.
Where [4] appears, read: IC50 of NCM460 cells/IC50 of cancer cells.
The mark [5] stands for this setting: MIHA, MTT assay, 72 h incubation.
[6] abbreviates: MTT assay, 72 h incubation, read-out: IC50.

In general, IC50 refers to the concentration that gives 50% inhibition. Regarding `COc1cccc2c1C(=O)c1c(O)c3c(c(O)c1C2=O)C[C@@](O)(C(=O)CO)C[C@@H]3O[C@H]1C[C@H](N)[C@H](O)[C@H](C)O1` [DOX, doxorubicin], the IC50 worked out at 680 ± 50 nM in the series on A2780adr [1]; 700 nM in the series with A2780adr [1] (read-out: DOX at IC50); 700 nM in the series on A2780adr [1] (read-out: Total dose at IC50); 100 ± 10 nM in the series on MIHA (72 h); 100 nM in the series on MIHA (72 h, read-out: DOX at IC50); 100 nM with MIHA (72 h, read-out: Total dose at IC50). The IC50 was determined as 140 ± 20 nM with HCT116 (Homo sapiens, HCT-116); 45 ± 7 nM with A2780 (Homo sapiens); 570 nM in the series on HeLa (Homo sapiens, 72 h, read-out: DOX at IC50); 570 nM in the series with HeLa (Homo sapiens, 72 h, read-out: Total dose at IC50); 570 ± 60 nM in the series on HeLa (Homo sapiens, MTT assay, 72 h incubation, read-out: IC50); 54 ± 5 nM with A2780cis (Homo sapiens, A2780cis). Further, in the series on NCI-H460 (Homo sapiens), the IC50 worked out at 36 ± 10 nM. The “Toxicity (of DOX) toward cancer cells compared to that toward MIHA cells” value in the series with HCT116 (HCT-116, IC50 of MIHA cells/IC50 of cancer cells) is recorded as 0.7; in the series on A2780 (setting [3]), 2.2; with HeLa (IC50 of MIHA cells/IC50 of cancer cells, cytotoxicity of 1 in NC1 not considered) it was 0.2; in the series on A2780cis (A2780cis, IC50 of MIHA cells/IC50 of cancer cells), 1.9; with NCI-H460 (setting [3]), 2.8; in the series with A2780adr [2] (A2780adr, IC50 of MIHA cells/IC50 of cancer cells) it was 0.1. The “Toxicity (of DOX) toward cancer cells compared to that toward NCM460 cells” value in the series with HCT116 (HCT-116, IC50 of NCM460 cells/IC50 of cancer cells) came out at 7.1; in the series with A2780 (setting [4]), 22.2; with HeLa (IC50 of NCM460 cells/IC50 of cancer cells, cytotoxicity of 1 in NC1 not considered), 1.8; in the series on A2780cis (A2780cis, IC50 of NCM460 cells/IC50 of cancer cells) it was 18.5; in the series with NCI-H460 (setting [4]) it was 27.8; with A2780adr [2] (A2780adr, IC50 of NCM460 cells/IC50 of cancer cells), 1.5. Moreover, the figures for the “DOX uptake smaller than after incubation of NC1” value with A2780adr cells (14 h) and in the series with A2780adr cells (24 h) were 1.8 fold and 3.0 fold, respectively. For the same compound, the “Uptake of DOX by A2780adr cells” value in the series with A2780adr cells (incubation 14 h) is 33.9 μg per g of proteins; in the series with A2780adr cells (incubation 24 h), 27.8 μg per g of proteins. For the same compound, in the series on HCT116 cells, the “Incubation time for induction of apoptosis of HCT116 cells” value is 30 h. Moreover, in the series on A2780adr [2] (from IC50 of Table 1), the “Lower cytotoxicity toward A2780adr cells than non-resistant A2780 cells” value is 15 fold.
Regarding `Oc1ccc(-c2c3nc(c(-c4ccccc4)c4ccc([n-]4)c(-c4ccccc4)c4nc(c(-c5ccccc5)c5ccc2[n-]5)C=C4)C=C3)cc1.[Au+3].[Cl-]` [A4], the IC50 in the series with MIHA (setting [5]) amounted to 570 ± 40 nM; with HeLa (setting [6]) it was 380 ± 70 nM; with NCI-H460, 150 ± 3 nM; with A2780adr [2] (A2780adr) it was 530 ± 140 nM. Further, the “IC50 for non-tumorigenic cells” value in the series on non-tumorigenic cells was “submicromolar range”.
In the case of `O=C(O)CCCCCCCCC(=O)Oc1ccc(-c2c3nc(c(-c4ccccc4)c4ccc([n-]4)c(-c4ccccc4)c4nc(c(-c5ccccc5)c5ccc2[n-]5)C=C4)C=C3)cc1.[Au+3].[Cl-]` [A10], the IC50 in the series on MIHA (setting [5]) was 610 ± 50 nM; in the series with HeLa (setting [6]), 410 ± 50 nM; in the series on NCI-H460 it was 180 ± 4 nM; in the series on A2780adr [2] (A2780adr) it was 520 ± 60 nM. In addition, the “IC50 for non-tumorigenic cells” value in the series on non-tumorigenic cells is given as “submicromolar range”.
Regarding `N.N.[Cl][Pt][Cl]` [Cisplatin, cisplatin, reference compound], the IC50 with MIHA (setting [5]) is 17600 ± 1300 nM; in the series on CCD-19Lu, 49100 ± 5400 nM; in the series with HCT116 it was 15700 ± 2200 nM; in the series with A2780, 2600 ± 300 nM; with HeLa (setting [6]), 19800 ± 1400 nM; with A2780cis (A2780cis) it was 8400 ± 50 nM. Moreover, the IC50 with NCI-H460 amounted to 65400 ± 5000 nM; with A2780adr [2] (A2780adr) it was 12700 ± 1900 nM; in the series on NCM460 it was 12300 ± 900 nM. In the series on A2780cis (Determined by IC50 of A2780cis cells/IC50 of A2780 cells), the “Resistance found in A2780cis” value was found to be 0.31. The “Resistance found in A2780adr” value in the series on A2780adr [2] (Determined by IC50 of A2780adr cells/IC50 of A2780 cells) is 0.20.
